For experiment [1], the target named is Dual specificity testis-specific protein kinase 1 (Homo sapiens) (UniProt Q15569). The conditions noted are these: at 10 µM.
Experiment [2] has as its target T1, Ankyrin repeat and protein kinase domain-containing protein 1 (Homo sapiens) (UniProt Q8NFD2).
T1 sequence (whole entry): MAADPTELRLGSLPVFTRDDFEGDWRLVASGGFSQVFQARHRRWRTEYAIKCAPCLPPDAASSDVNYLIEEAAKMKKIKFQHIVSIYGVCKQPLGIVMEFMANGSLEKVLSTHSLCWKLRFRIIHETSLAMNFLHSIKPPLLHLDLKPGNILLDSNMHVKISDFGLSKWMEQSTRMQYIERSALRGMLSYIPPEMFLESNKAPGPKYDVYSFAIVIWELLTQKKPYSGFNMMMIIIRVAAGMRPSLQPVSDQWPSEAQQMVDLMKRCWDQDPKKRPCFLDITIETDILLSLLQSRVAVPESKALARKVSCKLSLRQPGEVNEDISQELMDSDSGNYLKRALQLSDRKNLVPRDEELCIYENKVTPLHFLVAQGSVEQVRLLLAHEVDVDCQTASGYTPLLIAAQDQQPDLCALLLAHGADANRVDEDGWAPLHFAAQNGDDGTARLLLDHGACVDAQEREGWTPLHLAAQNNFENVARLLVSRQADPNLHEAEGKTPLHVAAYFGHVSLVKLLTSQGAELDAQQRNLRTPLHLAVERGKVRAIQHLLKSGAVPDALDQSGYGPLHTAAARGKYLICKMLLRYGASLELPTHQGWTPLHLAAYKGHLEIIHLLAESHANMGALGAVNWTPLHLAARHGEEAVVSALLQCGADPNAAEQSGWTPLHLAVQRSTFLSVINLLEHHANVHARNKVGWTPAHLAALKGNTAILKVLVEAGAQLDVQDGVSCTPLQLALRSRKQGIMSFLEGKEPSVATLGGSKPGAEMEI
Nature of the experiment: Selectivity interaction (KinomeScan (DiscoverX)) EUB0001619a ANKK1. To be noted: at 1 µM.

Experiment [3] concerns the target Dual specificity protein kinase CLK2 (Homo sapiens, UniProt P49760). Nature of the experiment: Selectivity interaction (Kinase panel (Invitrogen)) EUB0000639a CLK2. To be noted: at 200 nM.
The target of experiment [4] is T2, Mitogen-activated protein kinase kinase kinase 7 (Homo sapiens) (UniProt O43318).
T2 sequence (whole entry): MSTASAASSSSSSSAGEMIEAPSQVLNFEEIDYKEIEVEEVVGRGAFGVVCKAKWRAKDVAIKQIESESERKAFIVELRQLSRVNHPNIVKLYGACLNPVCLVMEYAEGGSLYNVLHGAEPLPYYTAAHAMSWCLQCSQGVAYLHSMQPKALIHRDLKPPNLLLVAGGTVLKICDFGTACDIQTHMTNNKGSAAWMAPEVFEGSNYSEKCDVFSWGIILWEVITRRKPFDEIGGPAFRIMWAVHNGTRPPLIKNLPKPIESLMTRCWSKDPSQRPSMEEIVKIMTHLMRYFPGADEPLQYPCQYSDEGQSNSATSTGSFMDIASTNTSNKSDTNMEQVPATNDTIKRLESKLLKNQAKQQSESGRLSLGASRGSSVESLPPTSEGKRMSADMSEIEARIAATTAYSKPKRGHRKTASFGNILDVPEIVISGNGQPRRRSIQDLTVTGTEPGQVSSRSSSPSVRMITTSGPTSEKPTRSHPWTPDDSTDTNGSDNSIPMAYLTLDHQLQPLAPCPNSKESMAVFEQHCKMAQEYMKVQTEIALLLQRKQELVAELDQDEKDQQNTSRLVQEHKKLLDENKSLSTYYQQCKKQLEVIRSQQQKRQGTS
Nature of the experiment: Selectivity interaction (KinomeScan (DiscoverX)) EUB0000045b MAP3K7.

Experiment [5] addresses T3, Tyrosine-protein kinase ZAP-70 (Homo sapiens) (UniProt P43403).
T3 sequence (whole entry): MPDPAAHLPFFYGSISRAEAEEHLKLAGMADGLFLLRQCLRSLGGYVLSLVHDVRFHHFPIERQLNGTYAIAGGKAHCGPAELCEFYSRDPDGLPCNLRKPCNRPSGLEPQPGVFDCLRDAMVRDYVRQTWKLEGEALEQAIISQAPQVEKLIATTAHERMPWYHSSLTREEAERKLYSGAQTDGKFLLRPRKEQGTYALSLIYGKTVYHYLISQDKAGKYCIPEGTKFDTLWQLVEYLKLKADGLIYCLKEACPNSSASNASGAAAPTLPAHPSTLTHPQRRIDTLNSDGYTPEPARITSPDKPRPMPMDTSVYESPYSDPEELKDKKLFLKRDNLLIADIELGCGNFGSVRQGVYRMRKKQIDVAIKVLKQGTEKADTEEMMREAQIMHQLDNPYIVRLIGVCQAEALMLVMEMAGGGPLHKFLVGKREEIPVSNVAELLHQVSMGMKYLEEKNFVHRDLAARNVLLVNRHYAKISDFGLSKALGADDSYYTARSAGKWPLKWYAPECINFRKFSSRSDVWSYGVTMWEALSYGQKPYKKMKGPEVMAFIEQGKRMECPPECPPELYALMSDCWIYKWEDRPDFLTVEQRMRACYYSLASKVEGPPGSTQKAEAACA
The experiment can be described thus: Selectivity interaction (KinomeScan (DiscoverX)) EUB0001049a ZAP70. The conditions noted are these: at 1 µM.

Experiment [6] concerns the target N-lysine methyltransferase SMYD2 (Homo sapiens) (UniProt Q9NRG4). The experiment can be described thus: Selectivity interaction (Methyltransferase screen (radiometric assays, panel of 8 PRMTs, 21 protein lysine methyltransferases, 3 DNA methyltransferases, and one RNA methyltransferase)) EUB0000272b SMYD2.
In experiment [7] the target is Cyclin-dependent kinase-like 1 (Homo sapiens) (UniProt Q00532). Nature of the experiment: Selectivity interaction (KinomeScan (DiscoverX)) EUB0001079a CDKL1. The conditions noted are these: at 1 µM.
Sequence of Cyclin-dependent kinase-like 1 (Homo sapiens) (Q00532 whole entry): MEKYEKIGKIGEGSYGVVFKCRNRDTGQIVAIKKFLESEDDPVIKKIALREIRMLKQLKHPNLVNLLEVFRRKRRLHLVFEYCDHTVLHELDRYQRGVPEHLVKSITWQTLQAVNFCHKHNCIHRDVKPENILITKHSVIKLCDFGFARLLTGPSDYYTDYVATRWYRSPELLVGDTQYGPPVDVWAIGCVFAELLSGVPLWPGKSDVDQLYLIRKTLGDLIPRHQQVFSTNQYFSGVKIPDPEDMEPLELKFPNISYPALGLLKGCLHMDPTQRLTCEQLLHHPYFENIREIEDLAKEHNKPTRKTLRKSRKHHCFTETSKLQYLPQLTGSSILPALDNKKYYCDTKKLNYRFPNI
The target in experiment [8] is Homeodomain-interacting protein kinase 3 (Homo sapiens, UniProt Q9H422). Nature of the experiment: Selectivity interaction (KinomeScan (DiscoverX)) EUB0001079a HIPK3. The conditions noted are these: at 1 µM.
Sequence of Homeodomain-interacting protein kinase 3 (Q9H422 whole entry, looked up): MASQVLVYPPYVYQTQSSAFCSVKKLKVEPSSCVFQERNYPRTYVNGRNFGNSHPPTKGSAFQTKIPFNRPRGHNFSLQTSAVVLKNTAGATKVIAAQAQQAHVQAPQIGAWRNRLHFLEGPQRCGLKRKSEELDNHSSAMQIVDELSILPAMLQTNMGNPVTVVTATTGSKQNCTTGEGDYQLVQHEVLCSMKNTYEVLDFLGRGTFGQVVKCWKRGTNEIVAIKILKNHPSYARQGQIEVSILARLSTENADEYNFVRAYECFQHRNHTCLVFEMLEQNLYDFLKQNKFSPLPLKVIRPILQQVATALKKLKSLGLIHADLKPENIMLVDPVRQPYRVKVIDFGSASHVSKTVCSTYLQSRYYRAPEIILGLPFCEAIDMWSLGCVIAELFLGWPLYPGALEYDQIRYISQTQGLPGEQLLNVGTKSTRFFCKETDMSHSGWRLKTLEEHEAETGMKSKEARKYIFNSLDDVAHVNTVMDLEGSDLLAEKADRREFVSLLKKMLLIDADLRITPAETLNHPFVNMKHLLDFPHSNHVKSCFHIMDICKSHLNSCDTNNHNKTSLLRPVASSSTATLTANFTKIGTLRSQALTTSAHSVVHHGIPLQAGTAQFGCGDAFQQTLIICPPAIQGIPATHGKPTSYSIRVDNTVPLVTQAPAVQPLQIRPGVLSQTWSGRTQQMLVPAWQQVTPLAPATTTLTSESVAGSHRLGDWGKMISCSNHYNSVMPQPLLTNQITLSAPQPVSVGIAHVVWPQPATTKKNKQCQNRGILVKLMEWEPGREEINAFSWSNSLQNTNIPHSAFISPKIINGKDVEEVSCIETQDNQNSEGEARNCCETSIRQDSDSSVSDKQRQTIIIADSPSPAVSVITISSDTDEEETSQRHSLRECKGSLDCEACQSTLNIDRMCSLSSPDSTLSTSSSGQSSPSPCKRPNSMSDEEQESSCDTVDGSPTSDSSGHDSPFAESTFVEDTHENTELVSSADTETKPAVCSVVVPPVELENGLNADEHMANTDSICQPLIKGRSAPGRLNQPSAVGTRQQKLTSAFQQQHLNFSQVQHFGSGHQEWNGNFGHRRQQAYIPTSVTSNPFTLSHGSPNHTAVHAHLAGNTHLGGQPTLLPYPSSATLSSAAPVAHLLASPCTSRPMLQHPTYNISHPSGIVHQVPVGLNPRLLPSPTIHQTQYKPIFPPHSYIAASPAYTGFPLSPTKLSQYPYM
Experiment [9] addresses Mitogen-activated protein kinase 4 (Homo sapiens) (UniProt P31152). Nature of the experiment: Selectivity interaction (KinomeScan (DiscoverX)) EUB0001079a MAPK4. The conditions noted are these: at 1 µM.

Sequence of N-lysine methyltransferase SMYD2 (Homo sapiens) (Q9NRG4 whole entry): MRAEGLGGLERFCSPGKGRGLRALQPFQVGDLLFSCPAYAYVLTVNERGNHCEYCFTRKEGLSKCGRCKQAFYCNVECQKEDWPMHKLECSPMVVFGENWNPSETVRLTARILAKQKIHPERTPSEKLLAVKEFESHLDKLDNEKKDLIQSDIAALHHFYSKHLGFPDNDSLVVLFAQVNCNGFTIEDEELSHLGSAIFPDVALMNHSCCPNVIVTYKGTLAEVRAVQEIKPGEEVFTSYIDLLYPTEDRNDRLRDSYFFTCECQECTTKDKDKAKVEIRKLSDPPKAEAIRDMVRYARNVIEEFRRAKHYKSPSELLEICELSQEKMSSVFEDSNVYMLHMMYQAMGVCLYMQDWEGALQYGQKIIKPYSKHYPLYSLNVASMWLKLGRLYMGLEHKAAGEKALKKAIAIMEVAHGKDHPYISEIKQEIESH
Sequence of Dual specificity testis-specific protein kinase 1 (Homo sapiens) (Q15569 whole entry, looked up, the tested form may be a part): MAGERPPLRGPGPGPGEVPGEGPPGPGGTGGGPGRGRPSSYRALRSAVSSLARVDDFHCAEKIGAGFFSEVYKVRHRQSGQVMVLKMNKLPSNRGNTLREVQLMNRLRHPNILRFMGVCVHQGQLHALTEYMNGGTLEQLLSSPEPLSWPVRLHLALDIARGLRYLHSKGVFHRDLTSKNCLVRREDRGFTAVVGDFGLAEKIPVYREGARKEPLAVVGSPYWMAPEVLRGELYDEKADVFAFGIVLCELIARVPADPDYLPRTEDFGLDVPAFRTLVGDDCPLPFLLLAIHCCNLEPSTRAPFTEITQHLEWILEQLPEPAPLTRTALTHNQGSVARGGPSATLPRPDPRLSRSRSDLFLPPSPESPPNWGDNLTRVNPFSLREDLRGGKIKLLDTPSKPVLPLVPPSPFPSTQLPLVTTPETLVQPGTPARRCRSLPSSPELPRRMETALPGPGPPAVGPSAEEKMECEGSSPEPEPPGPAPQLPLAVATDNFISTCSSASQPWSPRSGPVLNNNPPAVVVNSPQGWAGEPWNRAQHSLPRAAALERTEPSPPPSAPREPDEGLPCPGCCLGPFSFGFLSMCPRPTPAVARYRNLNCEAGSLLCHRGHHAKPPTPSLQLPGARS
Sequence of Mitogen-activated protein kinase 4 (Homo sapiens) (P31152 whole entry): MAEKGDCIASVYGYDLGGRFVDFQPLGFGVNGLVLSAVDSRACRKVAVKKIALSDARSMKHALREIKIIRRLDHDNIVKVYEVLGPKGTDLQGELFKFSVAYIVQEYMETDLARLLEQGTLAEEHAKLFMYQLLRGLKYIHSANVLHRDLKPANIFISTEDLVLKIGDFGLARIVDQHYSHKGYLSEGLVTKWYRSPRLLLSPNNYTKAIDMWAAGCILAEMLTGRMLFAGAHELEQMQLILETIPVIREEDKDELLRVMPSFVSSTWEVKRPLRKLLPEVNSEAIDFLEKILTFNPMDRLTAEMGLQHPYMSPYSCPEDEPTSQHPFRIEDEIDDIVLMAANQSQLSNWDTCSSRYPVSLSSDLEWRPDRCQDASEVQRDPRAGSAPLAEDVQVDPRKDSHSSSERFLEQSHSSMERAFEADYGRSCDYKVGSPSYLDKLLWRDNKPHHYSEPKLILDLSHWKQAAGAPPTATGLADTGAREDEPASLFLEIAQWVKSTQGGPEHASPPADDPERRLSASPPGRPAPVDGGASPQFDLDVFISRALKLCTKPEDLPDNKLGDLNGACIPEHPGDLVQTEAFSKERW
Sequence of Dual specificity protein kinase CLK2 (P49760 whole entry, looked up): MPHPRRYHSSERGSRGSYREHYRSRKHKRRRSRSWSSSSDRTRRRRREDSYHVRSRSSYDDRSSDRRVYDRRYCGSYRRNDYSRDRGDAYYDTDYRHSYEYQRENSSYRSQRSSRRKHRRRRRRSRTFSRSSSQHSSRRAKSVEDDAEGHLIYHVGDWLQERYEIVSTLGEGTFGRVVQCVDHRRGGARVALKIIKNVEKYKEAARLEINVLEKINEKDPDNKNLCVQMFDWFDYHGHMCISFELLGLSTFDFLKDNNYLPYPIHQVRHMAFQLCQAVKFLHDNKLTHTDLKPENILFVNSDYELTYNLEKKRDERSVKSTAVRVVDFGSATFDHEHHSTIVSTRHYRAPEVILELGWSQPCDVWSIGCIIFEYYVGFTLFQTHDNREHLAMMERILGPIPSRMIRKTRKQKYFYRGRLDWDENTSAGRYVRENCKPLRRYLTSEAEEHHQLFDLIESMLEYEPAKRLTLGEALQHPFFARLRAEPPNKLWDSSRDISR

For `COCC(=O)NC/C=C/c1ccc2ncnc(Nc3ccc(Oc4ccc(C)nc4)c(C)c3)c2c1` [CP-724714], the % of control in experiment [1] turned out to be 75%.

For `N#Cc1cccc(-c2c[nH]c3ncnc(N4CCOCC4)c23)c1`, the % of control in experiment [2] stood at 98%.

Regarding `CC[C@@H]1[C@H](F)C(=O)N[C@@H]1COc1nccc2cc(C(N)=O)c(OC)cc12` [ZIMLOVISERTIB], the % of inhibition in experiment [3] is 14.8%. Consider `C=CC(=O)Nc1cc(-n2c(=O)ccc3cnc4ccc(-c5ccc(NS(C)(=O)=O)cc5)cc4c32)ccc1C`, for which the % of control in [4] (at 1 µM) came to 83%; in [4] (at 10 µM) it was 78%.

With `COc1cc(Nc2nc(C)cc(-c3cnn4nc(OC)ccc34)n2)cc(C(F)(F)F)c1`, in [5], the % of control amounted to 95%. With `Cc1cc(C)cc([C@H]2c3cc(C)ccc3NC(=O)CN2C(=O)c2ccc(Br)s2)c1`, the % of activity in [6] (at 1 µM) and in experiment [6] (at 10 µM) was 94.3% in each case.

Take `Nc1cnc(N2CCc3cc(S(=O)(=O)Nc4c(F)cc(Cl)cc4F)cc(N4CCCC4=O)c32)nc1` [TP-020n]: the % of control was found to be 85% in experiment [7], 100% in experiment [8] and 100% in [9].

(Values after ChEMBL document CHEMBL5465560, “Selectivity Literature for EUbOPEN Chemogenomic Library” (2024).)
